In ChEMBL document CHEMBL3994638, “The juxtamembrane region of TrkA kinase is critical for inhibitor selectivity” (Bioorg Med Chem Lett, 2017):
pIC50: −log10 of the molar value.

Key:
[1] = target: BDNF/NT-3 growth factors receptor (Homo sapiens, UniProt Q16620); assay: Inhibition of recombinant human TrkB expressed in DHFR deficient CHO cells assessed as inhibition of human brain-derived neurotrophic factor-induced calcium influx by Fluo-4 AM dye based assay; type: cell-based
[2] = target: NT-3 growth factor receptor (Homo sapiens, UniProt Q16288); assay: Inhibition of recombinant human TrkC expressed in DHFR deficient CHO cells assessed as inhibition of human neurotrophin-3-induced calcium influx by Fluo-4 AM dye based assay; type: cell-based
[3] = target: T1, High affinity nerve growth factor receptor (Homo sapiens, UniProt P04629); assay: Inhibition of recombinant human TrkA expressed in DHFR deficient CHO cells assessed as inhibition of human beta-nerve growth factor-induced calcium influx by Fluo-4 AM dye based assay; type: cell-based
[4] = target: T1, High affinity nerve growth factor receptor; assay: Inhibition of juxtamembrane region containing recombinant human N-terminal His6-tagged/GST-tagged TrkA (473 to 796 residues) expressed in baculovirus infected Hi5 cells using TK substrate after 60 mins by HTRF assay
[5] = target: T1, High affinity nerve growth factor receptor; assay: Inhibition of juxtamembrane region deficient recombinant human N-terminal His6-tagged/GST-tagged TrkA (498 to 796 residues) expressed in baculovirus infected Hi5 cells using TK substrate after 60 mins by HTRF assay

T1 sequence (P04629 whole entry, the tested form may be a part): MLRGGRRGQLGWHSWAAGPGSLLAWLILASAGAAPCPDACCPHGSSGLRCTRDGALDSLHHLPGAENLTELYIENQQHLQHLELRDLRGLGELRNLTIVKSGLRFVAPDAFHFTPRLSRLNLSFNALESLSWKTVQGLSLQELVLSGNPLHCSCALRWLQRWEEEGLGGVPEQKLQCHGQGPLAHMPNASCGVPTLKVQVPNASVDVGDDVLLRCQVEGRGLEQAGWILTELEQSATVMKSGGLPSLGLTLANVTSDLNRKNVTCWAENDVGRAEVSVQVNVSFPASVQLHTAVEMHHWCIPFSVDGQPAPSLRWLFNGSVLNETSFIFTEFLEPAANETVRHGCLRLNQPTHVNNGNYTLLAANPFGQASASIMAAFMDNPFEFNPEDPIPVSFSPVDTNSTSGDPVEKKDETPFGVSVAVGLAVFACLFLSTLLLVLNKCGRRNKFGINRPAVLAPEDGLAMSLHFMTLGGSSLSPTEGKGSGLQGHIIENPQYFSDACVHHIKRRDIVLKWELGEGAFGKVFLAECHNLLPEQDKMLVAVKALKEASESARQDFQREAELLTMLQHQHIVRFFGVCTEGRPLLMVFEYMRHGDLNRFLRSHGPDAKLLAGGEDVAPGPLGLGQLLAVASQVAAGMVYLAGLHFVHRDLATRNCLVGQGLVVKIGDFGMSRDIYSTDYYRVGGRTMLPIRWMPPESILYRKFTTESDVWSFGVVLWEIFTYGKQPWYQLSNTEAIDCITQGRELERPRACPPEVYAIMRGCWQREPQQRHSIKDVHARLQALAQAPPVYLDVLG
Chain of BDNF/NT-3 growth factors receptor (Q16620 whole entry): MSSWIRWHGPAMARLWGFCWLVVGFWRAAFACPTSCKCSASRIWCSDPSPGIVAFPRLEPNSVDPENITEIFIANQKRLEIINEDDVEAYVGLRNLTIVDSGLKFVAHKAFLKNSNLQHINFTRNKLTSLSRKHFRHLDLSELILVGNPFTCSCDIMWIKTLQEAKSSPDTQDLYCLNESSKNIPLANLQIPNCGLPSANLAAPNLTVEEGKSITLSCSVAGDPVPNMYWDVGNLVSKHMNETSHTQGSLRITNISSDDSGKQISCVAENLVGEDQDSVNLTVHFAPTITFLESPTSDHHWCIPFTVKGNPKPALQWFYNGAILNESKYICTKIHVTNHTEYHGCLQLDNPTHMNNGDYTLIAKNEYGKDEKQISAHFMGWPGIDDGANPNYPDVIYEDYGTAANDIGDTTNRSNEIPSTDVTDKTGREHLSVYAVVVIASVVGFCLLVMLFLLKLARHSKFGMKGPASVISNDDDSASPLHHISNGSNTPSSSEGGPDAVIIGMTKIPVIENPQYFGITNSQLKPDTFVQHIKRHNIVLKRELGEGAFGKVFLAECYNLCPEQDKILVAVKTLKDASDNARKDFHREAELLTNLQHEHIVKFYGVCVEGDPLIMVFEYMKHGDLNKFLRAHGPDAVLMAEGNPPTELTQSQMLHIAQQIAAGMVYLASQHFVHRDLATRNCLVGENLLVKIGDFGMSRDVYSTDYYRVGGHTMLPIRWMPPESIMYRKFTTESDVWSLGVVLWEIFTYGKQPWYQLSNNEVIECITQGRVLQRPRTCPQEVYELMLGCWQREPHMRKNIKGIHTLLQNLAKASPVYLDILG
Chain of NT-3 growth factor receptor (Q16288 whole entry): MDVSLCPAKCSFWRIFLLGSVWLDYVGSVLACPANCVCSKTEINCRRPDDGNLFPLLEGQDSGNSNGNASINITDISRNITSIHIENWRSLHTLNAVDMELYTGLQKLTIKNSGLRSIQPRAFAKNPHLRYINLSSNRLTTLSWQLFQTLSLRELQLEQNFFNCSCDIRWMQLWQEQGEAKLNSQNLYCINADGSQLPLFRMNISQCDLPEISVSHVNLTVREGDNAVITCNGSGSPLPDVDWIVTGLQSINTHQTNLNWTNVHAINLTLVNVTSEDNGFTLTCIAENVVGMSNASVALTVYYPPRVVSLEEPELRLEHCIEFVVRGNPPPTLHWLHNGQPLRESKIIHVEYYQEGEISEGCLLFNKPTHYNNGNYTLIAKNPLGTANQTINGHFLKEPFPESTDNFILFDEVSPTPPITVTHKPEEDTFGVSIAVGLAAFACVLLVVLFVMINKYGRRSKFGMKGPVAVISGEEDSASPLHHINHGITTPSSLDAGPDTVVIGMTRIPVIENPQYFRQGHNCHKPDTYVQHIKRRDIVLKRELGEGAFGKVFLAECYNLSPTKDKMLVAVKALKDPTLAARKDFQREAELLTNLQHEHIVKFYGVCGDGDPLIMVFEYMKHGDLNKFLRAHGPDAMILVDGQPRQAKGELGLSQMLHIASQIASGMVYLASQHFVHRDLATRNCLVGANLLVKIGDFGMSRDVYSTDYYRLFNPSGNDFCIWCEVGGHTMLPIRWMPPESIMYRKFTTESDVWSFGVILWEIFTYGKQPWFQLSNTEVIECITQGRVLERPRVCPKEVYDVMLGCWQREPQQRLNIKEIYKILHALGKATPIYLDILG

pIC50 [1]	pIC50 [2]	pIC50 [3]	pIC50 [4]	pIC50 [5]	Structure (SMILES)
6.88	–	–	–	–	COc1cc(-c2cn(CC(=O)Nc3cc(C4CC4)nn3-c3ccccc3)nn2)ccc1-n1cnc(C)c1
8.17	8.14	–	–	–	CC(C)Oc1cc(Nc2nc(N[C@@H](C)c3ccc(F)cn3)ncc2Cl)n[nH]1
5.88	5.60	8.57	8.22	4.43	CCOc1nn(-c2ccccc2)c(NC(=O)N[C@@H]2CN(CCOC)C[C@H]2c2ccc(F)c(F)c2)c1C
